SMILES strings stand for the structures. Positions count from the first letter of the chain named.

What all share (assay): cAMP accumulation
Format in all cases: cell-based
Holding throughout (conditions): cAMP maximal response, mean ± S.E.M., SEM
(Cyclic AMP is a second messenger, typically raised through Gs and lowered through Gi signalling.)

The target of one assay is T1, hCTR N288A (Homo sapiens, UniProt P30988, N288A).
T1 construct: expressed in transfected cells
T1 sequence (P30988 25-474 N288A): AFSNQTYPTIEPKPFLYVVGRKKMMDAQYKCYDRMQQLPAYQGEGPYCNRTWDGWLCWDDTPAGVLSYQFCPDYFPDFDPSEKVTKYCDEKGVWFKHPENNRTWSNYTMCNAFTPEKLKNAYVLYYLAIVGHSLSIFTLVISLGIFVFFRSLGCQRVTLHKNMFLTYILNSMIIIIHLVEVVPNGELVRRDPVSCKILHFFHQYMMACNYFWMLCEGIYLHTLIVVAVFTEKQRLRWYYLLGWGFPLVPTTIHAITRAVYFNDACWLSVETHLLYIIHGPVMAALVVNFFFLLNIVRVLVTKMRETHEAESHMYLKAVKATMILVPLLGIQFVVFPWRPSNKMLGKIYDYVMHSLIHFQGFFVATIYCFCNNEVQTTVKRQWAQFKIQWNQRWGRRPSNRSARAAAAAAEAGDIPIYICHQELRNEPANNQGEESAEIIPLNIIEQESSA
The protocol: (§1) Cells (2.5 × 10^4 cells/well) were seeded into 96-well plates and incubated overnight. Cells were stimulated with increasing concentrations of ligands for 30 min in the presence of IBMX. The liquid was discarded, changed to absolute ethanol and volatilized to dryness at room temperature. […] Data were normalized to the response of 100 μM forskolin.
(§2) Data were corrected for radioligand occupancy using the Cheng-Prusoff equation in Prism; as such data are reported as pKi. Emax and EC50 were estimated from concentration-response curves using with a 3-parameter logistic equation in Prism (v7). These values are a composite of functional affinity, efficacy and stimulus response coupling. […] Significance was accepted at P < 0.05.

A further assay concerns the target T2, hCTR V283A (Homo sapiens, UniProt P30988, V283A).
T2 construct: expressed in transfected cells
T2 sequence (P30988 25-474 V283A): T1 sequence (P30988 25-474 N288A) with V259A, A264N
The protocol:
as §1, §2

The target of another assay is T3, hCTR T280A (Homo sapiens, UniProt P30988, T280A).
T3 construct: expressed in transfected cells
T3 sequence (P30988 25-474 T280A): T1 sequence (P30988 25-474 N288A) with T256A, A264N
The method, then: as §1, §2

For another assay, the target named is T4, hCTR T295A (Homo sapiens, UniProt P30988, T295A).
T4 construct: c-Myc (N); expressed in transfected cells
T4 sequence (P30988 25-474 T295A): T1 sequence (P30988 25-474 N288A) with A264N, T271A
The protocol:
as §1, §2

The target in a further assay is T5, hCTR V375A (Homo sapiens, UniProt P30988, V375A).
T5 construct: c-Myc (N); expressed in transfected cells
T5 sequence (P30988 25-474 V375A): T1 sequence (P30988 25-474 N288A) with A264N, V351A
The method, then:
as §1, §2

For `CC[C@H](C)[C@H](NC(=O)[C@H](C)NC(=O)[C@@H](NC(=O)[C@H](CCC(N)=O)NC(=O)[C@@H]1CCCN1C(=O)[C@H](Cc1ccccc1)NC(=O)[C@@H](NC(=O)[C@H](Cc1c[nH]cn1)NC(=O)[C@H](Cc1ccccc1)NC(=O)[C@H](CCCCN)NC(=O)[C@H](CC(N)=O)NC(=O)[C@H](Cc1ccccc1)NC(=O)[C@H](CC(=O)O)NC(=O)[C@H](CCC(N)=O)NC(=O)[C@@H](NC(=O)[C@H](Cc1ccc(O)cc1)NC(=O)[C@@H](NC(=O)CNC(=O)[C@H](CC(C)C)NC(=O)[C@H](CCSC)NC(=O)[C@@H]1CSSC[C@H](N)C(=O)NCC(=O)N[C@@H](CC(N)=O)C(=O)N[C@@H](CC(C)C)C(=O)N[C@@H](CO)C(=O)N[C@@H]([C@@H](C)O)C(=O)N1)[C@@H](C)O)[C@@H](C)O)[C@@H](C)O)[C@@H](C)O)C(=O)NCC(=O)N[C@H](C(=O)NCC(=O)N[C@@H](C)C(=O)N1CCC[C@H]1C(N)=O)C(C)C` [hCT], the Emax (usually the size of the effect at its maximum, as opposed to the concentration needed) at hCTR N288A came out at 117 ± 10%; on hCTR V283A, 90 ± 7%; on hCTR T280A it was 97 ± 6%; on hCTR T295A it was 127 ± 11%; on hCTR V375A, 122 ± 7%.

Source of the values: paper PMC5908784, “Extracellular loops 2 and 3 of the calcitonin receptor selectively modify agonist binding and efficacy” (Biochemical Pharmacology, 2018).
